4 compounds from patent publication US20080312192A1, “Diaryl Urea Derivatives in the Treatment of Protein Kinase Dependent Diseases” (priority 2003, published 2008) can be followed below.

In one data set the test system is ITD-Ba/F3. Conditions: Mus musculus, BaF3, 48 h, read-out: Inhibition of Flt-3 dependent Proliferation (ED50) ITD-mutant.
The next data set deals with D835Y-Ba/F3. Conditions: Mus musculus, BaF3, 48 h, read-out: Inhibition of Flt-3 dependent Proliferation (ED50) D835-mutant.
Another data set concerns the target T1, RET (Homo sapiens, UniProt P07949).
T1 construct: expresses the amino acid region 658-1072 (Swiss prot No. Q9BTB0); made in house; host or cells: Sf9 insect cells (baculovirus, vector pFB-GSTX3)
T1 sequence (P07949 658-1072 isoform P07949-2): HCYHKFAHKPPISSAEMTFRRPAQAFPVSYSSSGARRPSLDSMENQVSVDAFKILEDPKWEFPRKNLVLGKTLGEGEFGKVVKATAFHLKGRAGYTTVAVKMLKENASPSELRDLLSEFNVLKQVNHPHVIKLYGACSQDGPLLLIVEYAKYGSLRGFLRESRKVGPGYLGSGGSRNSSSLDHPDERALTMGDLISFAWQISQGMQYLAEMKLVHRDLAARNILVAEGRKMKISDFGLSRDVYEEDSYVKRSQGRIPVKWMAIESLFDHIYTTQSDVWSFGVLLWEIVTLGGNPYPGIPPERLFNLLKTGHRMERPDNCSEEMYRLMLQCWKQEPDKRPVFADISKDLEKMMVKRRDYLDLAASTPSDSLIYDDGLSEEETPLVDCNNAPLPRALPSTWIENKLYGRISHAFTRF
Briefly: RET kinase inhibition (33P incorporation into poly(Glu,Tyr), GST-wtRET or GST-RET-Men2B). It counts as biochemical. On the procedure:
RET kinase inhibition is determined as follows:
The coding sequence for the cytoplasmic domain of wtRET is amplified by PCR from a cDNA library using specific primers. RET-Men2B is generated through site-directed mutagenesis resulting in the M918T mutation. The amplified DNA fragments and the pFB-GSTX3 vector are made compatible for ligation by digestion with SalI and KpnI. Ligation of these DNA fragments results in the baculovirus donor plasmids […] and pFB-GX3-RET-Men2B, respectively.
Production of virus: The baculovirus donor plasmids containing the kinase domains are transfected into the DH10Bac cell line (GIBCO) and the transfected cells are plated on selective agar plates. Colonies without insertion of the fusion sequence into the viral genome (carried by the bacteria) are blue. Single, white colonies are picked and viral DNA (bacmid) is isolated from the bacteria by standard plasmid purification procedures. Sf9 cells or Sf21 cells (American Type Culture Collection) are then transfected in 25 cm^2 flasks with the viral DNA using Cellfectin reagent.
Protein expression in Sf9 cells: Virus-containing media is collected from the transfected cell culture and used for infection to increase its titer. Virus-containing media obtained after two rounds of infection is used for large-scale protein expression. For large-scale protein expression 100 cm^2 round tissue culture plates are seeded with 5×10^7 cells/plate and infected with 1 mL of virus-containing media (approximately 5 MOIs). After 3 days, the cells are scraped off the plate and centrifuged at 500 rpm for 5 minutes. Cell pellets from 10-20, 100 cm^2 plates are re-suspended in 50 mL of ice-cold lysis buffer (25 mM Tris-HCl, pH 7.5, 2 mM EDTA, 1% NP-40, 1 mM DTT, 1 mM PMSF). The cells are stirred on ice for 15 minutes and then centrifuged at 5,000 rpms for 20 minutes.
Purification of GST-tagged proteins: The centrifuged cell lysate is loaded onto a 2 mL glutathione-sepharose column (Pharmacia) and washed 3× with 10 mL of 25 mM Tris-HCl, pH 7.5, 2 mM EDTA, 1 mM DTT, 200 mM NaCl. The GST-tagged proteins are then eluted by 10 applications (1 mL each) of 25 mM Tris-HCl, pH 7.5, 10 mM reduced-glutathione, 100 mM NaCl, 1 mM DTT, 10% glycerol and stored at −70° C.
Measure of enzyme activity: Tyrosine protein kinase assays with either purified GST-wtRET or GST-RET-Men2B protein are carried out in a final volume of 30 μL containing 15 ng of either GST-RET or GST-RET-Men2B protein, 20 mM Tris-HCl, pH 7.5, 1 mM MnCl2, 10 mM MgCl2, 1 mM DTT, 3 μg/mL poly(Glu, Tyr) 4:1, 1% DMSO, 2.0 μM ATP (γ-[^33P]-ATP 0.1 μCi). The activity is assayed in the presence or absence of inhibitors, by measuring the incorporation of ^33P from [γ^33P] ATP into poly(Glu, Tyr) 4:1. […] Subsequently, 40 μL of the reaction mixture are transferred onto Immobilon-PVDF membrane (Millipore) previously soaked for 5 minutes with methanol, rinsed with water, then soaked for 5 minutes with 0.5% H3PO4 and mounted on vacuum manifold with disconnected vacuum source. After spotting all samples, vacuum is connected and each well rinsed with 200 μL 0.5% H3PO4. Membranes are removed and washed 4× on a shaker with 1.0% H3PO4, once with ethanol. Membranes are counted after drying at ambient temperature, mounting in Packard TopCount 96-well frame, and addition of 10 μl/well of Microscint™ (Packard). […] One unit of protein kinase activity is defined as 1 nmole of ^33P transferred from [γ^33P] ATP to the substrate protein/minute/mg of protein at 37° C.

Description for D835Y-Ba/F3: (§1) Inhibition of Proliferation in Flt-3 Dependent Ba/F3 Cells:
(§2) The compound's potential to penetrate cell membranes and exert antiproliferative effects is determined in Ba/F3 cells dependent on mutated [ITD or D835Y; Gilliland and Griffin, Blood, Vol. 100, No. 5, 153242 (2002)] Flt-3 receptor kinases.
(§3) A modified protocol of the YO-PRO-1 assay in a 96-well format is based on the use of the wild-type IL-3-dependent hematopoietic cell line Ba/F3 (DSMZ, Braunschweig, Germany) and the mutant sub-lines ITD-Ba/F3 or D835Y-Ba/F3 [Weisberg et al., Cancer Cell 1 (5):433-43 (2000)] expressing constitutively activating Flt-3 kinases.
(§4) ITD-FLT3- or D835Y-FLT3-Ba/F3 cells are diluted in fresh medium to a final concentration of 3×10^5 cells per ml and 50 μl aliquots seeded into 96-well plates (1.5×10^4 cells per well). Subsequently, 50 μl 2× compound solutions were added and cells incubated for 48 h. The anti-proliferative and apoptotic activity of a compound is initially tested in triplicates at 10 μM, 1 μM and 0.1 μM concentration on both cell lines. Cells treated with DMSO alone (added to a final concentration of 0.1%) always serves as a control. In addition, a plate blank value is routinely determined in a well containing only 100 μl of medium and no cells.
(§5) To further profile a compound an ED50 determination is done starting at 10 μM or 3 μM of the compound of interest. From those concentrations, stepwise nine dilutions are prepared reaching the final concentrations of 2 μM and 0.5 μM, respectively.
(§6) Activity of inhibitors is assessed by the YO-PRO-1 assay as previously described in [Idziorek et al., J. Immunol. […] Briefly, after the treatment period of 48 h, a 25 μl aliquot of a solution containing 100 mM sodium citrate, pH 4.0, 134 mM sodium chloride and 12.5 μM YO-PRO-1 dye (YO-PRO-1 iodide, #Y3603, Molecular Probes) is directly added to the 100 μl medium in the wells of the 96-well plate. That results in a final dye concentration of 2.5 μM, the plate is then incubated for 10 min at ambient temperature in the dark. The uptake of the YO-PRO-1 dye into cells is assessed by a first measurement using a Cytofluor II 96-well plate reader (PerSeptive Biosystems) with the following settings: Excitation (nm) 485120 and Emission (nm) 530/25, Gain 75. After this first reading, 25 μl of lysis buffer consisting of 20 mM sodium citrate, pH 4.0, 26.8 mM sodium chloride, 0.4% NP40, 20 mM EDTA and 20 mM is added to each well. Cell lysis is completed within 60 min at room temperature and total amount of YO-PRO-1 bound to DNA is determined by a second measurement using the Cytofluor II 96-well reader with the identical setting as described above.
Description for ITD-Ba/F3: as §1, §2, §3, §4, §5, §6

As usually defined, the melting point is the temperature, or range, at which the solid turns liquid. On to `CNc1nccc(Oc2ccc(NC(=O)Nc3ccc(CN4CCN(C(C)(C)C)CC4)c(C(F)(F)F)c3)cc2)n1` [Example 49, N-[4-(2-Methylamino-pyrimidin-4-yloxy)-phenyl]-N′-[4-(4-tert-butylpiperazinyl-methyl)-3-trifluoromethyl-phenyl]-urea], for which the melting point was 257 to 258 °C. In the data set on ITD-Ba/F3, the EC50 came to 0.1 nM. The EC50 in the data set on D835Y-Ba/F3 came out at 11.7 nM.
With `CNc1nccc(Oc2ccc(NC(=O)Nc3ccc(CN4CCN(C(C)C)CC4)c(C(F)(F)F)c3)cc2)n1` [Example 46, N-[4-(2-Methylamino-pyrimidin-4-yloxy)-phenyl]-N′-[4-(4-isopropylpiperazin-1-ylmethyl)-3-trifluoromethyl-phenyl]-urea], the results for the EC50 with ITD-Ba/F3 and in the data set with D835Y-Ba/F3 were below 0.2 nM and 3.9 nM, respectively.
In general, IC50 refers to the concentration at which inhibition is half-maximal. Higher therefore signals weaker potency in that assay. At RET, `CCN1CCN(Cc2ccc(NC(=O)Nc3ccc(Oc4ccnc(NC)n4)cc3)cc2C(F)(F)F)CC1` [Example 53c, 1-[4-(4-Ethyl-piperazin-1-ylmethyl)-3-trifluoromethyl-phenyl]-3-[4-(2-methylamino-pyrimidin-4-yloxy)-phenyl]-urea] had an IC50 of 350 nM. Besides, the EC50 with ITD-Ba/F3 is 0.1 nM; in the data set on D835Y-Ba/F3, 3.3 nM.
As for `CC(C)N1CCN(Cc2ccc(NC(=O)Nc3ccc(Oc4ccnc(N)n4)cc3)cc2C(F)(F)F)CC1` [Example 45, N-[4-(2-Amino-pyrimidin-4-yloxy)-phenyl]-N′-[4-(4-isopropylpiperazin-1-ylmethyl)-3-trifluoromethyl-phenyl]-urea], the IC50 at RET was 400 nM. Besides, the EC50 in the data set with ITD-Ba/F3 was below 0.2 nM; with D835Y-Ba/F3, 0.5 nM.
